The results in this text go back to patent US11760750B1, “Process for preparing levoketoconazole” (Nuray Chemicals Private Limited, priority 2022, dated 2023).

Molecules are shown by their SMILES.

The nature of series [1]: Powder flow of crystalline levoketoconazole: bulk density, tapped density, Hausner Ratio, Carr Index (USP <1174>). It is filed as physicochemical. As to the method: The Hausner Ratio is a value calculated by dividing the tapped density of the levoketoconazole by the freely settled bulk density of the levoketoconazole. The freely settled bulk density is calculated by pouring a known weight of material into a measuring cylinder and recording the volume. The tapped density is calculated by tapping the cylinder against a surface for a specified numbers of times and recording again the new volume.
The Carr (or Compressibility) Index is frequently used in pharmaceutics as an indication of the compressibility of a powder. The Carr Index may be calculated by dividing the difference of the tapped and bulk densities by the tapped density and then multiplying by 100. In a free-flowing powder, the bulk density and tapped density would be close in value; therefore, the Carr Index would be small. On the other hand, in a poor-flowing powder where there are greater interparticle interactions, the difference between the bulk and tapped density observed would be greater, therefore, the Carr Index would be larger.

A short description of another series: Solubility in water. In kind it is physicochemical.

Regarding `CC(=O)N1CCN(c2ccc(OC[C@@H]3CO[C@@](Cn4ccnc4)(c4ccc(Cl)cc4Cl)O3)cc2)CC1` [crystalline levoketoconazole, (2S,4R)-cis-1-acetyl-4-[4-[[2-(2,4-dichlorophenyl)-2-(1H-imidazol-1-ylmethyl)-1,3-dioxolan-4-yl]methoxyl]phenyl] piperazine], the “Carr Index (Compressibility Index)” value in series [1] is “below 15”. For the same compound, the “flowability (flow character by Hausner Ratio)” value in series [1] is recorded as “good”. Besides, the bulk density result in series [1] (100 g sample, 250 mL graduated cylinder) is on record as “about 0.576 g/mL”. In addition, the results for the “Hausner Ratio” value in series [1] (500 taps) and in series [1] (1250 taps) were 1.120 and 1.18, respectively. Also, the tapped density result is reported as “about 0.686 g/mL” in series [1] (after 500 taps) and “about 0.681 g/mL” in series [1] (after 1,250 taps). Moreover, the solubility in water result in the series “Solubility in water” is recorded as “poorly soluble in water”.
